According to the NIST ThermoML archive (doi:10.1021/acs.jced.7b00035):
Values joined by “and” are separate entries in the source; they are usually repeats but may differ in a detail not shown here. Identical values can stand only once.

Experiments:
[1] = xn = mol fraction of the nth substance listed; details: 100 kPa, Liquid, Vibrating tube method
[2] = excess molar enthalpy (molar enthalpy of mixing); xn = mol fraction of the nth substance listed; details: 100 kPa, Liquid, Flow calorimetry

CC(=O)C(C)C [3-methyl-2-butanone] + O
Details | excess molar enthalpy, [2] | mass density, [1]
288.15 K, x1 = 0.000837 | -0.0025 kcal/mol | 998.559 kg/m3 and 998.558 kg/m3
288.15 K, x1 = 0.001672 | -0.00495 kcal/mol and -0.00497 kcal/mol | 998.026 kg/m3 and 998.025 kg/m3
288.15 K, x1 = 0.002505 | -0.00739 kcal/mol | 997.502 kg/m3
288.15 K, x1 = 0.002506 | -0.0074 kcal/mol | 997.502 kg/m3
288.15 K, x1 = 0.003337 | -0.00974 kcal/mol | 996.996 kg/m3
288.15 K, x1 = 0.003339 | -0.00976 kcal/mol | 996.993 kg/m3
288.15 K, x1 = 0.004168 | -0.0121 kcal/mol | 996.494 kg/m3
288.15 K, x1 = 0.004171 | -0.0121 kcal/mol | 996.488 kg/m3
288.15 K, x1 = 0.004998 | -0.0145 kcal/mol | 995.988 kg/m3
288.15 K, x1 = 0.005001 | -0.0144 kcal/mol | 996 kg/m3
298.15 K, x1 = 0.000836 | -0.00207 kcal/mol | 996.47 kg/m3
298.15 K, x1 = 0.001671 | -0.00411 kcal/mol | 995.897 kg/m3
298.15 K, x1 = 0.001672 | -0.00411 kcal/mol | 995.899 kg/m3
298.15 K, x1 = 0.002505 | -0.00612 kcal/mol and -0.00606 kcal/mol | 995.337 kg/m3 and 995.348 kg/m3
298.15 K, x1 = 0.003337 | -0.00802 kcal/mol and -0.00799 kcal/mol | 994.799 kg/m3 and 994.805 kg/m3
298.15 K, x1 = 0.004166 | -0.00989 kcal/mol | 994.261 kg/m3
298.15 K, x1 = 0.004168 | -0.00994 kcal/mol | 994.254 kg/m3
298.15 K, x1 = 0.004994 | -0.0118 kcal/mol | 993.729 kg/m3
298.15 K, x1 = 0.004998 | -0.0118 kcal/mol | 993.722 kg/m3
308.15 K, x1 = 0.000836 | -0.00164 kcal/mol | 993.424 kg/m3
308.15 K, x1 = 0.000837 | -0.00163 kcal/mol | 993.426 kg/m3
308.15 K, x1 = 0.001672 | -0.00322 kcal/mol and -0.00323 kcal/mol | 992.827 kg/m3 and 992.824 kg/m3
308.15 K, x1 = 0.002504 | -0.00478 kcal/mol | 992.235 kg/m3
308.15 K, x1 = 0.002506 | -0.00482 kcal/mol | 992.224 kg/m3
308.15 K, x1 = 0.003336 | -0.00632 kcal/mol | 991.647 kg/m3
308.15 K, x1 = 0.00334 | -0.00634 kcal/mol | 991.646 kg/m3
308.15 K, x1 = 0.004167 | -0.00783 kcal/mol | 991.064 kg/m3
308.15 K, x1 = 0.004171 | -0.00781 kcal/mol | 991.067 kg/m3
308.15 K, x1 = 0.005001 | -0.00926 kcal/mol | 990.494 kg/m3
318.15 K, x1 = 0.000836 | -0.00121 kcal/mol | 989.576 kg/m3 and 989.578 kg/m3
318.15 K, x1 = 0.00167 | -0.00239 kcal/mol | 988.947 kg/m3
318.15 K, x1 = 0.001671 | -0.00239 kcal/mol | 988.945 kg/m3
318.15 K, x1 = 0.002338 | -0.0033 kcal/mol | 988.447 kg/m3
318.15 K, x1 = 0.002505 | -0.00353 kcal/mol | 988.318 kg/m3
318.15 K, x1 = 0.003336 | -0.00465 kcal/mol | 987.702 kg/m3
318.15 K, x1 = 0.003337 | -0.00465 kcal/mol | 987.696 kg/m3
318.15 K, x1 = 0.004167 | -0.00571 kcal/mol | 987.091 kg/m3
318.15 K, x1 = 0.004168 | -0.00573 kcal/mol | 987.083 kg/m3
318.15 K, x1 = 0.004997 | -0.00677 kcal/mol | 986.477 kg/m3
318.15 K, x1 = 0.004998 | -0.00677 kcal/mol | 986.481 kg/m3

CC(=O)CC(C)C [4-methylpentan-2-one] + O
Details | excess molar enthalpy, [2] | mass density, [1]
288.15 K, x1 = 0.000573 | -0.00173 kcal/mol | 998.669 kg/m3
288.15 K, x1 = 0.000574 | -0.00174 kcal/mol | 998.655 kg/m3
288.15 K, x1 = 0.00086 | – | 998.405 kg/m3 and 998.422 kg/m3
288.15 K, x1 = 0.001146 | -0.00341 kcal/mol | 998.224 kg/m3
288.15 K, x1 = 0.001147 | -0.00344 kcal/mol | 998.21 kg/m3
288.15 K, x1 = 0.001432 | -0.00429 kcal/mol | 997.995 kg/m3
288.15 K, x1 = 0.001434 | -0.00425 kcal/mol | 998.001 kg/m3
288.15 K, x1 = 0.001718 | -0.00512 kcal/mol | 997.779 kg/m3
288.15 K, x1 = 0.00172 | -0.00508 kcal/mol | 997.788 kg/m3
288.15 K, x1 = 0.002004 | -0.00591 kcal/mol | 997.592 kg/m3
288.15 K, x1 = 0.002006 | -0.00591 kcal/mol | 997.567 kg/m3
298.15 K, x1 = 0.000574 | -0.00135 kcal/mol and -0.00134 kcal/mol | 996.572 kg/m3 and 996.58 kg/m3
298.15 K, x1 = 0.00086 | -0.002 kcal/mol | 996.345 kg/m3
298.15 K, x1 = 0.000861 | -0.00203 kcal/mol | 996.319 kg/m3
298.15 K, x1 = 0.001146 | -0.00269 kcal/mol | 996.114 kg/m3
298.15 K, x1 = 0.001148 | -0.00271 kcal/mol | 996.078 kg/m3
298.15 K, x1 = 0.001433 | -0.0033 kcal/mol | 995.875 kg/m3
298.15 K, x1 = 0.001435 | -0.00335 kcal/mol | 995.871 kg/m3
298.15 K, x1 = 0.001718 | -0.00394 kcal/mol | 995.624 kg/m3
298.15 K, x1 = 0.001721 | -0.00397 kcal/mol | 995.64 kg/m3
298.15 K, x1 = 0.002004 | -0.00459 kcal/mol | 995.417 kg/m3
298.15 K, x1 = 0.002007 | -0.00455 kcal/mol | 995.402 kg/m3
308.15 K, x1 = 0.000573 | -0.000968 kcal/mol | 993.534 kg/m3 and 993.533 kg/m3
308.15 K, x1 = 0.000859 | -0.00147 kcal/mol | 993.283 kg/m3 and 993.282 kg/m3
308.15 K, x1 = 0.001145 | -0.00193 kcal/mol and -0.00192 kcal/mol | 993.03 kg/m3 and 993.053 kg/m3
308.15 K, x1 = 0.001431 | -0.00239 kcal/mol and -0.00238 kcal/mol | 992.791 kg/m3 and 992.795 kg/m3
308.15 K, x1 = 0.001716 | -0.00285 kcal/mol | 992.542 kg/m3
308.15 K, x1 = 0.001717 | -0.00288 kcal/mol | 992.525 kg/m3
308.15 K, x1 = 0.002002 | -0.0033 kcal/mol | 992.3 kg/m3
308.15 K, x1 = 0.002003 | -0.0033 kcal/mol | 992.285 kg/m3
318.15 K, x1 = 0.000573 | -0.000982 kcal/mol and -0.000633 kcal/mol | –
318.15 K, x1 = 0.000859 | -0.00093 kcal/mol and -0.000918 kcal/mol | 989.411 kg/m3 and 989.421 kg/m3
318.15 K, x1 = 0.001145 | -0.00122 kcal/mol | 989.156 kg/m3
318.15 K, x1 = 0.001146 | -0.00122 kcal/mol | 989.147 kg/m3
318.15 K, x1 = 0.001431 | -0.00149 kcal/mol | 988.905 kg/m3
318.15 K, x1 = 0.001432 | -0.00148 kcal/mol | 988.91 kg/m3
318.15 K, x1 = 0.001717 | -0.00179 kcal/mol | 988.633 kg/m3
318.15 K, x1 = 0.001718 | -0.00178 kcal/mol | 988.636 kg/m3
318.15 K, x1 = 0.002003 | -0.00204 kcal/mol | 988.402 kg/m3
318.15 K, x1 = 0.002004 | -0.00202 kcal/mol | 988.379 kg/m3
